# Reference: ChEMBL document CHEMBL4622898, “Synthesis, in vitro ADME profiling and in vivo pharmacological evaluation of novel glycogen phosphorylase inhibitors” (Bioorg Med Chem Lett, 2020)
# The source made the active and inactive calls. The rule behind the calls is not given here.
# Assays:
# Mus musculus [1] = test: Hypoglycemic activity in adrenaline-induced diabetic mouse assessed as glucose AUC at 12.5 mg/kg, po measured up to 90 min (reference value: 482.63 +/- 21.01 mg/dL.min); assay type: functional, organism-based; design: time < 1.5 hr, dose 12.5 mg/kg
# [2] = Stability of compound in simulated gastric fluid assessed as compound degradation measured up to 24 hrs; assay type: physicochemical; settings: simulated gi fluid
# Mus musculus [3] = test: Hypoglycemic activity in adrenaline-induced diabetic fasted mouse assessed as reduction in plasma glucose level at 12.5 to 50 mg/kg, po; assay type: functional, organism-based
# Mus musculus [4] = species on record: Mus musculus; test: Hypoglycemic activity in adrenaline-induced diabetic mouse assessed as blood glucose level measured at 1.5 hrs (reference value: 486.15 +/- 22.65 mg/dl); assay type: functional
# HepG2 = test: Inhibition of glycogenolysis in human HepG2 cells assessed as GCN-stimulated glycogen breakdown after 5 mins; assay type: functional, cell-based; settings: HepG2, 5 min
# Mus musculus [5] = test: Hypoglycemic activity in adrenaline-induced diabetic mouse assessed as fasted plasma glucose level at 25 mg/kg, po measured immediately (reference value: 4.84 +/- 0.15); assay type: functional
# Mus musculus [6] = test: Hypoglycemic activity in adrenaline-induced diabetic mouse assessed as fasted plasma glucose level at 50 mg/kg, po measured immediately (reference value: 4.84 +/- 0.15); assay type: functional
# Mus musculus [7] = test: Hypoglycemic activity in adrenaline-induced diabetic mouse assessed as fasted plasma glucose level at 50 mg/kg, po measured after 60 min (reference value: 8.41 +/- 0.48); assay type: functional
# Mus musculus [8] = test: Hypoglycemic activity in adrenaline-induced diabetic mouse assessed as fasted plasma glucose level at 25 mg/kg, po measured after 60 min (reference value: 8.41 +/- 0.48); assay type: functional
# Mus musculus [9] = test: Hypoglycemic activity in adrenaline-induced diabetic mouse assessed as fasted plasma glucose level at 12.5 mg/kg, po measured after 90 min (reference value: 7.56 +/- 0.49); assay type: functional
# Mus musculus [10] = test: Hypoglycemic activity in adrenaline-induced diabetic mouse assessed as fasted plasma glucose level at 25 mg/kg, po measured after 30 min (reference value: 9.58 +/- 0.44); assay type: functional
# Mus musculus [11] = test: Hypoglycemic activity in adrenaline-induced diabetic mouse assessed as fasted plasma glucose level at 12.5 mg/kg, po measured immediately (reference value: 4.84 +/- 0.15); assay type: functional
# Mus musculus [12] = test: Hypoglycemic activity in adrenaline-induced diabetic mouse assessed as fasted plasma glucose level at 50 mg/kg, po measured after 30 min (reference value: 9.58 +/- 0.44); assay type: functional
# Hepatocyte = test: Inhibition of glycogenolysis in rat hepatocytes assessed as GCN-stimulated glycogen breakdown after 5 mins; assay type: functional, cell-based
# [13] = Clearance in mouse liver microsomes; assay type: ADME, Microsome
# [14] = Intrinsic clearance in mouse liver microsomes; assay type: ADME, Microsome
# Mus musculus [15] = test: Hypoglycemic activity in adrenaline-induced diabetic mouse assessed as fasted plasma glucose level at 12.5 mg/kg, po measured after 30 min (reference value: 9.58 +/- 0.44); assay type: functional
# [16] = Stability of compound in simulated intestinal fluid assessed as compound degradation measured up to 1 hr; assay type: physicochemical; settings: simulated gi fluid
# Mus musculus [17] = test: Hypoglycemic activity in adrenaline-induced diabetic mouse assessed as glucose AUC at 25 mg/kg, po measured up to 90 min (reference value: 482.63 +/- 21.01 mg/dL.min); assay type: functional, organism-based; design: dose 25 mg/kg, time < 1.5 hr
# [18] = Inhibition of rabbit muscle Glycogen phosphorylase measured phosphate release from glucose-1-phosphate; design: species or system Oryctolagus cuniculus
# Mus musculus [19] = test: Hypoglycemic activity in adrenaline-induced diabetic mouse assessed as fasted plasma glucose level at 50 mg/kg, po measured after 90 min (reference value: 7.56 +/- 0.49); assay type: functional
# Mus musculus [20] = test: Hypoglycemic activity in adrenaline-induced diabetic mouse assessed as fasted plasma glucose level at 25 mg/kg, po measured after 90 min (reference value: 7.56 +/- 0.49); assay type: functional
# [21] = Half life in mouse liver microsomes; assay type: ADME, Microsome
# physchem = settings: buffer, pH 7.4
# Description: Kinetic solubility of compound at pH 7.4 by high-throughput kinetic solubility assay
# [22] = Lipophilicity, log D of the compound in 1-Octanol-phosphate buffer at pH 7.4; assay type: physicochemical
# Mus musculus [23] = test: Hypoglycemic activity in adrenaline-induced diabetic mouse assessed as fasted plasma glucose level at 12.5 mg/kg, po measured after 60 min (reference value: 8.41 +/- 0.48); assay type: functional
# [24] = Stability of compound in mouse plasma assessed as compound degradation measured up to 24 hrs; assay type: ADME, cell-free
# [25] = Stability of compound in simulated intestinal fluid assessed as compound degradation measured up to 6 hrs; assay type: physicochemical; settings: simulated gi fluid
# Mus musculus [26] = test: Hypoglycemic activity in adrenaline-induced diabetic mouse assessed as glucose AUC at 50 mg/kg, po measured up to 90 min (reference value: 482.63 +/- 21.01 mg/dL.min); assay type: functional, organism-based; design: time < 1.5 hr, dose 50 mg/kg
# [27] = Stability of compound in mouse plasma assessed as compound degradation measured up to 0.5 hrs; assay type: ADME, cell-free
# [28] = Stability of compound in simulated gastric fluid assessed as compound degradation measured up to 24 hrs relative to control; assay type: physicochemical; settings: read-out: Drug degradation
# Mus musculus [29] = test: Hypoglycemic activity in adrenaline-induced diabetic mouse assessed as fasted plasma glucose level at 200 mg/kg, po measured after 30 min (reference value: 9.58 +/- 0.44); assay type: functional
# Mus musculus [30] = test: Hypoglycemic activity in adrenaline-induced diabetic mouse assessed as fasted plasma glucose level at 200 mg/kg, po measured after 60 min (reference value: 8.41 +/- 0.48); assay type: functional
# Mus musculus [31] = test: Hypoglycemic activity in adrenaline-induced diabetic mouse assessed as glucose AUC at 200 mg/kg, po measured up to 90 min (reference value: 482.63 +/- 21.01 mg/dL.min); assay type: functional, organism-based; design: dose 200 mg/kg, time < 1.5 hr
# Mus musculus [32] = test: Hypoglycemic activity in adrenaline-induced diabetic mouse assessed as fasted plasma glucose level at 200 mg/kg, po measured immediately (reference value: 4.84 +/- 0.15); assay type: functional
# Mus musculus [33] = test: Hypoglycemic activity in adrenaline-induced diabetic mouse assessed as fasted plasma glucose level at 200 mg/kg, po measured after 90 min (reference value: 7.56 +/- 0.49); assay type: functional
# [34] = Inhibition of recombinant human liver glycogen phosphorylase a expressed in baculovirus-infected Sf9 cells using glucose-1-phosphate as substrate in presence of 7.5 mM glucose
# [35] = Aqueous solubility of compound; assay type: physicochemical; settings: buffer
Structure (SMILES),IC50 (HepG2) [µM],CLint scaled [13] [mL/min/kg],CLint [14] [µL/min/mg],Stability [16],IC50 [18] [µM],half-life [21] [min],solubility kinetic (physchem) [µM],logD [22],IC50 (Hepatocyte) [µM],other results
CN(C)CCCN1c2ccccc2Sc2ccc(Cl)cc21 [CHLORPROMAZINE],–,–,–,–,–,–,–,3.23,–,–
CN(C)C(=N)NC(=N)N [METFORMIN],–,–,–,–,–,–,–,–,–,plasma glucose (Mus musculus [29]): 8.85 mM; plasma glucose (Mus musculus [30]): 5.79 mM; AUC (Mus musculus [31]): 374 mg/dL×min; OD (Mus musculus [32]): 4.76; OD (Mus musculus [33]): 5
O=C(O)Cc1ccccc1Nc1c(Cl)cccc1Cl [DICLOFENAC],–,203,51.2,–,–,27.1,–,–,–,–

# Now from value to molecule, other results behind:
IC50 (HepG2) [µM],CLint scaled [13] [mL/min/kg],CLint [14] [µL/min/mg],Stability [16],IC50 [18] [µM],half-life [21] [min],solubility kinetic (physchem) [µM],logD [22],Structure (SMILES),IC50 (Hepatocyte) [µM],other results
3.24,< 38,< 9.6,Stable,0.289,> 145,188,0.72,O=C(O)CNC(=O)[C@H](Cc1ccccc1)NC(=O)c1cc2cc(Cl)ccc2[nH]1,7.15,AUC (Mus musculus [1]): 449 mg/dL×min; Stability [2]: Stable; Activity (Mus musculus [3]): Active; Activity (Mus musculus [4]): 446.25 mg/dL; OD (Mus musculus [5]): 4.85; OD (Mus musculus [6]): 4.86; plasma glucose (Mus musculus [7]): 6.83 mM; plasma glucose (Mus musculus [8]): 7.62 mM; plasma glucose (Mus musculus [9]): 7.47 mM; plasma glucose (Mus musculus [10]): 9.52 mM; OD (Mus musculus [11]): 4.89; plasma glucose (Mus musculus [12]): 9.03 mM; plasma glucose (Mus musculus [15]): 8.92 mM; AUC (Mus musculus [17]): 451 mg/dL×min; plasma glucose (Mus musculus [19]): 6.05 mM; plasma glucose (Mus musculus [20]): 6.7 mM; plasma glucose (Mus musculus [23]): 7.4 mM; Stability [24]: Stable; Stability [25]: Unstable; AUC (Mus musculus [26]): 416 mg/dL×min
0.661,356,90,Unstable,0.0487,15.4,1.89,3.95,COC(=O)CNC(=O)[C@H](Cc1ccccc1)NC(=O)c1cc2cc(Cl)ccc2[nH]1,0.72,Stability [27]: Unstable; degraded at 24 h [28]: 50%
8.39,–,–,–,0.578,–,–,–,O=C(N[C@@H](Cc1ccc(O)cc1)c1nc2ccccc2[nH]1)c1cc2cc(Cl)ccc2[nH]1,9.46,–
3.31,–,–,–,0.0922,–,–,–,CN(C)C(=O)[C@H](O)[C@H](Cc1ccccc1)NC(=O)c1cc2cc(Cl)ccc2[nH]1,3.17,IC50 [34]: 0.11 µM; solubility [35]: < 1000 µg/mL
6.47,< 38,< 9.6,Unstable,0.555,> 145,36.8,3.32,NC(=O)[C@@H](Cc1ccccc1)NC(=O)CNC(=O)c1cc2cc(Cl)ccc2[nH]1,7.65,Stability [2]: Stable; Stability [24]: Stable
